For one experiment, the target named is rat mGlu3 (Rattus norvegicus (Rat), UniProt P31422). The experiment in a line: mGlu3 Ca2+ flux assay. The experiment is classed as cell-based. The settings on record: for remaining activity at 30 µM: amplitude of response at 30 μM test compound as % of maximal response to glutamate, read-out: rat mGlu3 Glu max (%). The method, then:
(§1) The cells were grown overnight at 37° C. in the presence of 5% CO2. […] Dye was removed, 20 μL of assay buffer was added, and the plate was incubated for 10 minutes at room temperature. Ca^2+ flux was measured using the Functional Drug Screening System (FDSS7000, Hamamatsu, Japan). […] All test compounds were dissolved and diluted to a concentration of 10 mM in 100% DMSO. […] Calcium fluorescence measures were recorded as fold over basal fluorescence; raw data was then normalized to the maximal response to glutamate. […] The raw data file containing all time points was used as the data source in the analysis template. This was saved by the FDSS as a tab-delimited text file. Data were normalized using a static ratio function (F/F0) for each measurement of the total 360 values per well divided by each well's initial value. […] This is sufficient time to capture the peak amplitude of the cellular calcium response. […] EC50 values for test compounds were generated by fitting the normalized values versus the log of the test compound concentration (in mol/L) using a 4 parameter logistic equation where none of the parameters were fixed. Each of the three values collected at each concentration of test compound were weighted evenly.

Another experiment addresses rat mGlu5 (Rattus norvegicus (Rat), UniProt P31424). The experiment in a line: mGlu5 Ca2+ flux assay. The experiment is classed as cell-based. The following applies: for Emax at 30 µM: PAM, amplitude of response at 30 μM test compound as % of maximal response to glutamate, read-out: rat mGlu5 Glu max (%); for Fold selectivity (mGlu3 vs. mGlu5): ratio of rat mGlu5 EC50 or IC50 to rat mGlu3 IC50; for EC50: read-out: rat mGlu5 EC50 or IC50. How it is done: as §1, with “for 5” for “for 10”

Where [1] appears, read: NAM potency, decrease of glutamate EC80 response, >30,000 = no measurable activity, >10,000 = no plateau, read-out: rat mGlu3 IC50.

The structures appear in SMILES notation. Read-outs that look alike come from different tables or passages of the source. A value given as a limit tells only on which side of the number the result lay.

Chain of rat mGlu3 (P31422 23-879): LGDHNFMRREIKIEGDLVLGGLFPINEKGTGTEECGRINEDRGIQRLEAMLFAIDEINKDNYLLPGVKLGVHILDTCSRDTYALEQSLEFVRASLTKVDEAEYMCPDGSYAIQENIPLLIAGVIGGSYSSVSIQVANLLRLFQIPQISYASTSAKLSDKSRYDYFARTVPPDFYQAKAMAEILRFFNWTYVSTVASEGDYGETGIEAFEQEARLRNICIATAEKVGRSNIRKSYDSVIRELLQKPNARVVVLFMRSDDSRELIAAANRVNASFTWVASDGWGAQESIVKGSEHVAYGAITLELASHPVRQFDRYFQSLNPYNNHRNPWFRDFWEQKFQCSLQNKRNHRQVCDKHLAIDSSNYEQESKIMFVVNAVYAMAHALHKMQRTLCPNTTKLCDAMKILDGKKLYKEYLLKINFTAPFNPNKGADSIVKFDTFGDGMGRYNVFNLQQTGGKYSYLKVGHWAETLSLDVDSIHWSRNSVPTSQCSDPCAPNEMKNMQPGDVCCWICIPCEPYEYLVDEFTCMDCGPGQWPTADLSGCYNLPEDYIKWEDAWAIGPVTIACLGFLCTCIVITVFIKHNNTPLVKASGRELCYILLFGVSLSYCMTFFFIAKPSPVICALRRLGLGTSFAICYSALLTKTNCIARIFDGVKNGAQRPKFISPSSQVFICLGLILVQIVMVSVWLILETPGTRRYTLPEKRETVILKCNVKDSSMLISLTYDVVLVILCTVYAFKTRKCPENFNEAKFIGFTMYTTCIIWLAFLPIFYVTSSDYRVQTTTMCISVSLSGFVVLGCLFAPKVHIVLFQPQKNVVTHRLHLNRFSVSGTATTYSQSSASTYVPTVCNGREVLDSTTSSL
Chain of rat mGlu5 (P31424 21-1203): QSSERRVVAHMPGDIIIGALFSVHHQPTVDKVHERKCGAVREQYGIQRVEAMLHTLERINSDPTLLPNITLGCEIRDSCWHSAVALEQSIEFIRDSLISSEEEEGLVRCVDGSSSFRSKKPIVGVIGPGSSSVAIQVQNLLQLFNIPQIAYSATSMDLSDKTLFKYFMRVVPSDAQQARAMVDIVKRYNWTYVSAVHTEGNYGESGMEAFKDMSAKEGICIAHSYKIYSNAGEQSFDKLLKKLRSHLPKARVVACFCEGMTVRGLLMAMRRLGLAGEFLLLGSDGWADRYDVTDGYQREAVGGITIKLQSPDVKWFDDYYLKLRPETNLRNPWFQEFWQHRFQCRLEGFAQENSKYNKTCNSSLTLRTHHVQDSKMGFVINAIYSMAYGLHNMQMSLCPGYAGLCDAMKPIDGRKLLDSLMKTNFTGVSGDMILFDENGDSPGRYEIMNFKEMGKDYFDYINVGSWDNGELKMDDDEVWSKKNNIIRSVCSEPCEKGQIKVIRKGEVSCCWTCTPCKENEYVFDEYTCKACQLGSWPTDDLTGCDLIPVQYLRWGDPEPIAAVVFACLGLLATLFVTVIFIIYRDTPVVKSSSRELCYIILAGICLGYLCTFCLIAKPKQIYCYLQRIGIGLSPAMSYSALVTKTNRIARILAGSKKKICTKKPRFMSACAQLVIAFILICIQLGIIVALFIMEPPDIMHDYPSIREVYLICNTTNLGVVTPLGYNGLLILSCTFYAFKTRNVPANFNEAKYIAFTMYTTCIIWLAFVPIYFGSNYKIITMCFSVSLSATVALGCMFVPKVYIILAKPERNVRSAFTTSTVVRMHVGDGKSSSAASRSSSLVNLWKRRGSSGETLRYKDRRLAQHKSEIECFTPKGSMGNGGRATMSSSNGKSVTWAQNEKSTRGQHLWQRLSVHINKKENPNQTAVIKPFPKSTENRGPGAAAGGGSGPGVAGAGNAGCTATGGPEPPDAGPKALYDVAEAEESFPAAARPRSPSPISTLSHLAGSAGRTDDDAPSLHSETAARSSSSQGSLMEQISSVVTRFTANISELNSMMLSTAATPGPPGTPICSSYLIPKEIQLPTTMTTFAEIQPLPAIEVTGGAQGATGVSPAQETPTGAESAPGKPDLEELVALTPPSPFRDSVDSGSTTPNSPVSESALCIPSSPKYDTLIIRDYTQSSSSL

Consider `Cc1cccc(NCc2cc3n(n2)[C@@H](C)CN(c2ccc(F)cc2)C3=O)c1` [Compound 51, (S)-5-(4-fluorophenyl)-7-methyl-2-((m-tolylamino)methyl)-6,7-dihydropyrazolo[1,5-a]pyrazin-4(5H)-one], for which, on rat mGlu3 (setting [1]), the IC50 is 3010 nM. Also, the remaining activity at 30 µM at rat mGlu3 stood at 3.21%. In addition, on rat mGlu5, the Emax at 30 µM turned out to be 86.2%, the “Fold selectivity (mGlu3 vs. mGlu5)” value was determined as 2.53 and the EC50 is 7610 nM.
Take `C[C@@H]1CN(c2ccc(F)cc2)C(=O)c2cc(CNc3c(F)cc(F)cc3F)nn21` [Compound 79, (R)-5-(4-fluorophenyl)-7-methyl-2-(((2,4,6-trifluorophenyl)amino)methyl)-6,7-dihydropyrazolo[1,5-a]pyrazin-4(5H)-one]: at rat mGlu3 (setting [1]), the IC50 came to 1280 nM. The remaining activity at 30 µM at rat mGlu3 is 1.49%. Besides, at rat mGlu5, the Emax at 30 µM was determined as 40%, the “Fold selectivity (mGlu3 vs. mGlu5)” value is reported as over 7.8 and the EC50 is over 10000 nM.
Regarding `COc1ccccc1NCc1cc2n(n1)CCN(c1ccc(F)cc1)C2=O` [Compound 6, 5-(4-fluorophenyl)-2-(((2-methoxyphenyl)amino)methyl)-6,7-dihydropyrazolo[1,5-a]pyrazin-4(5H)-one], on rat mGlu3 (setting [1]), the IC50 came out at 3040 nM. On rat mGlu3, the remaining activity at 30 µM stood at 0.98%. Also, at rat mGlu5, the “Fold selectivity (mGlu3 vs. mGlu5)” value is reported as over 9.8 and the EC50 was over 30000 nM.
In the case of `COc1ccc(N(C)Cc2cc3n(n2)CCN(c2ccc(OC)cc2)C3=O)cc1` [Compound 114, 5-(4-methoxyphenyl)-2-(((4-methoxyphenyl)(methyl)amino)methyl)-6,7-dihydropyrazolo[1,5-a]pyrazin-4(5H)-one], the IC50 at rat mGlu3 (setting [1]) was determined as 1370 nM. In addition, the remaining activity at 30 µM on rat mGlu3 stood at 1.7%. For the same molecule, on rat mGlu5, the “Fold selectivity (mGlu3 vs. mGlu5)” value is reported as over 21 and the EC50 is over 30000 nM.
Regarding `COc1ccc(N(C)Cc2cc3n(n2)CCN(c2ccccn2)C3=O)cc1` [Compound 117, 2-(((4-methoxyphenyl)(methyl)amino)methyl)-5-(pyridin-2-yl)-6,7-dihydropyrazolo[1,5-a]pyrazin-4(5H)-one], the IC50 on rat mGlu3 (setting [1]) worked out at 2730 nM. Moreover, at rat mGlu3, the remaining activity at 30 µM is 1.59%. Also, at rat mGlu5, the “Fold selectivity (mGlu3 vs. mGlu5)” value is recorded as over 10 and the EC50 was over 30000 nM.
Turning to `COc1ccc(N(C)Cc2cc3n(n2)CCN(c2cc(F)ccc2Cl)C3=O)cc1` [Compound 129, 5-(2-chloro-5-fluorophenyl)-2-(((4-methoxyphenyl)(methyl)amino)methyl)-6,7-dihydropyrazolo[1,5-a]pyrazin-4(5H)-one], the IC50 on rat mGlu3 (setting [1]) was 2020 nM. Besides, the remaining activity at 30 µM at rat mGlu3 is 2.02%. On rat mGlu5, the “Fold selectivity (mGlu3 vs. mGlu5)” value was over 14 and the EC50 is over 30000 nM.
On to `O=C1c2cc(CNc3ccc(OC(F)F)cc3F)nn2CCN1c1ncccc1F` [Compound 143, 2-(((4-(difluoromethoxy)-2-fluorophenyl)amino)methyl)-5-(3-fluoropyridin-2-yl)-6,7-dihydropyrazolo[1,5-a]pyrazin-4(5H)-one], for which, at rat mGlu3 (setting [1]), the IC50 was 950 nM. The remaining activity at 30 µM at rat mGlu3 was 1.31%. Also, on rat mGlu5, the “Fold selectivity (mGlu3 vs. mGlu5)” value was over 31 and the EC50 is over 30000 nM.
Turning to `C[C@H]1CN(c2ccc(F)cc2)C(=O)c2cc(CNc3ccc(F)cc3F)nn21` [Compound 76, (S)-2-(((2,4-difluorophenyl)amino)methyl)-5-(4-fluorophenyl)-7-methyl-6,7-dihydropyrazolo[1,5-a]pyrazin-4(5H)-one], the IC50 at rat mGlu3 (setting [1]) is 1170 nM. The remaining activity at 30 µM at rat mGlu3 was found to be 0.35%. Also, on rat mGlu5, the Emax at 30 µM turned out to be 86.1%, the “Fold selectivity (mGlu3 vs. mGlu5)” value is reported as 7.00 and the EC50 was found to be 8190 nM.
For the molecule `C[C@H]1CN(c2ccc(F)cc2)C(=O)c2cc(CNc3cccc(F)c3F)nn21` [Compound 69, (S)-2-(((2,3-difluorophenyl)amino)methyl)-5-(4-fluorophenyl)-7-methyl-6,7-dihydropyrazolo[1,5-a]pyrazin-4(5H)-one], the IC50 on rat mGlu3 (setting [1]) is 2220 nM. In addition, on rat mGlu3, the remaining activity at 30 µM is 2.19%. Besides, at rat mGlu5, the Emax at 30 µM was found to be 89.1%, the “Fold selectivity (mGlu3 vs. mGlu5)” value is reported as 2.59 and the EC50 worked out at 5750 nM.
In the case of `CN(Cc1cc2n(n1)CCN(c1ccc(F)cc1)C2=O)c1ccc(Cl)cc1` [Compound 90, 2-(((4-chlorophenyl)(methyl)amino)methyl)-5-(4-fluorophenyl)-6,7-dihydropyrazolo[1,5-a]pyrazin-4(5H)-one], the IC50 on rat mGlu3 (setting [1]) was determined as 885 nM. Also, the remaining activity at 30 µM at rat mGlu3 worked out at 1.4%. Besides, at rat mGlu5, the Emax at 30 µM was 87.3%, the “Fold selectivity (mGlu3 vs. mGlu5)” value was determined as 5.08 and the EC50 came to 4500 nM.
`O=C1c2cc(CNc3ccc(OC(F)F)cc3)nn2CCN1c1ccc(F)cc1` [Compound 20, 2-(((4-(difluoromethoxy)phenyl)amino)methyl)-5-(4-fluorophenyl)-6,7-dihydropyrazolo[1,5-a]pyrazin-4(5H)-one]: at rat mGlu3 (setting [1]), the IC50 stood at 709 nM. Further, the remaining activity at 30 µM on rat mGlu3 is 2.9%. For the same molecule, on rat mGlu5, the “Fold selectivity (mGlu3 vs. mGlu5)” value was over 42 and the EC50 was over 30000 nM.
For `C[C@H]1CN(c2ccc(F)cc2)C(=O)c2cc(CNc3ccc(OC(F)F)cc3)nn21` [Compound 65, (S)-2-(((4-(difluoromethoxy)phenyl)amino)methyl)-5-(4-fluorophenyl)-7-methyl-6,7-dihydropyrazolo[1,5-a]pyrazin-4(5H)-one], the IC50 at rat mGlu3 (setting [1]) came out at 1340 nM. For the same molecule, at rat mGlu3, the remaining activity at 30 µM worked out at 2.16%. For the same molecule, on rat mGlu5, the “Fold selectivity (mGlu3 vs. mGlu5)” value is on record as over 22 and the EC50 was over 30000 nM.
On to `C[C@H]1CN(c2ccc(F)cc2)C(=O)c2cc(CNc3c(F)cc(F)cc3F)nn21` [Compound 80, (S)-5-(4-fluorophenyl)-7-methyl-2-(((2,4,6-trifluorophenyl)amino)methyl)-6,7-dihydropyrazolo[1,5-a]pyrazin-4(5H)-one], for which the IC50 on rat mGlu3 (setting [1]) was found to be 4320 nM. At rat mGlu3, the remaining activity at 30 µM was -0.58%. On rat mGlu5, the Emax at 30 µM turned out to be 95.8%, the “Fold selectivity (mGlu3 vs. mGlu5)” value was found to be 1.79 and the EC50 is 7750 nM.
In the case of `C[C@H]1CN(c2ccc(F)cc2)C(=O)c2cc(CNc3c(F)cccc3F)nn21` [Compound 73, (S)-2-(((2,6-difluorophenyl)amino)methyl)-5-(4-fluorophenyl)-7-methyl-6,7-dihydropyrazolo[1,5-a]pyrazin-4(5H)-one], the remaining activity at 30 µM on rat mGlu3 was determined as 4.07%. In addition, the Emax at 30 µM on rat mGlu5 was 63.9%.
In the case of `COc1ccc(NCc2cc3n(n2)[C@H](C)CN(c2ccc(F)cc2)C3=O)cc1` [Compound 62, (R)-5-(4-fluorophenyl)-2-(((4-methoxyphenyl)amino)methyl)-7-methyl-6,7-dihydropyrazolo[1,5-a]pyrazin-4(5H)-one], on rat mGlu3 (setting [1]), the IC50 came to 2990 nM. Also, the remaining activity at 30 µM on rat mGlu3 was found to be 0.79%. Moreover, on rat mGlu5, the “Fold selectivity (mGlu3 vs. mGlu5)” value is listed as over 10 and the concentration giving a half-maximal response (EC50) is over 30000 nM.
In the case of `O=C1c2cc(CNc3cccc(F)c3F)nn2CCN1c1ccc(F)cc1` [Compound 27, 2-(((2,3-difluorophenyl)amino)methyl)-5-(4-fluorophenyl)-6,7-dihydropyrazolo[1,5-a]pyrazin-4(5H)-one], on rat mGlu3 (setting [1]), the IC50 was found to be 586 nM. In addition, the remaining activity at 30 µM on rat mGlu3 was 2.82%. For the same molecule, at rat mGlu5, the Emax at 30 µM came out at 90.8%, the “Fold selectivity (mGlu3 vs. mGlu5)” value amounted to 4.06 and the EC50 is 2380 nM.
Take `O=C1c2cc(CNc3ccc(Br)cc3)nn2CCN1c1ccc(F)cc1` [Compound 16, 2-(((4-bromophenyl)amino)methyl)-5-(4-fluorophenyl)-6,7-dihydropyrazolo[1,5-a]pyrazin-4(5H)-one]: on rat mGlu3 (read-out: rat mGlu3 IC50), the IC50 is over 30000 nM.
As to `O=C1c2cc(CNc3ccc(F)cc3)nn2CCN1c1ccc(F)cc1` [drawing 32 X = NH], the IC50 at rat mGlu3 (Table 2 compounds with X = NH, read-out: mGlu3 IC50) worked out at 1150 nM. Besides, the “mGlu3 Glu max” value at rat mGlu3 (Table 2 compounds with X = NH, response at 30 μM compound as percentage of maximal glutamate response) is 2%.
In the case of `CC(C)(C)c1ccc(NCc2cc3n(n2)CCN(c2ccc(F)cc2)C3=O)cc1` [Compound 24, 2-(((4-(tert-butyl)phenyl)amino)methyl)-5-(4-fluorophenyl)-6,7-dihydropyrazolo[1,5-a]pyrazin-4(5H)-one], at rat mGlu3 (read-out: rat mGlu3 IC50), the IC50 is over 30000 nM.

The values above are taken from patent US9676782B2, “Substituted pyrazolo[1,5-a]pyrazines as negative allosteric modulators of metabotropic glutamate receptor 3” (Vanderbilt University, priority 2014, dated 2017).
